# Entries after “also recorded” stand apart in the source; their conditions may differ.
# Tests used:
# [1] = system: elastase-induced emphysema; experiment: Hyaluronic acid-elastase model, mean linear intercept measurement of air-space size; format: in vivo, Syrian hamsters; conditions: 1 week
# Method: (§1) To test the possibility that addition of hyaluronic acid may inhibit air-space enlargement, Syrian hamsters were instilled with elastase intratracheally, then immediately given 1 mg of bovine tracheal hyaluronic acid by the same route. Controls received elastase followed by saline alone. Changes in air-space size were evaluated one week later, using the mean linear intercept method (8). To determine whether hyaluronic acid has elastase inhibitory capacity, it was incubated with pancreatic elastase in the presence of ^3 H-elastin. Controls contained elastase and ^3 H-elastin alone.
# Following intratracheal administration of 20 units of pancreatic elastase (see above procedure), hamsters immediately received, by the same route, 1 mg of bovine tracheal hyaluronic acid (Sigma Chemical Co., St. Louis, Mo.), dissolved in 0.2 ml of saline solution.
# [2] = system: elastase-induced emphysema; experiment: Hyaluronidase-elastase model, mean linear intercept measurement of air-space size; format: in vivo, Syrian hamsters
# Method: To determine the effects of hyaluronidase on elastase-induced emphysema, Syrian hamsters received intratracheal instillments of bovine testicular hyaluronidase and, 24 hours later, porcine pancreatic elastase. Controls received: 1) saline followed by elastase, 2) elastase followed by hyaluronidase, and 3) saline followed by saline. Air-space enlargement was measured one week later, using the mean linear intercept method (8). Changes in lung elastin content were determined at 24 and 48 hours by quantifying elastin-specific desmosine and isodesmosine cross-links.
# Female Syrian hamsters, weighing approximately 100 gms each, were anesthetized by intramuscular injection of ketamine hydrochloride (10 mg in 0.1 ml). The animals were then placed on a rodent surgical table (Harvard Bioscience, South Natick, Mass.) and restrained with elastic bands. The neck fur was shaved with a scalpel and a 2-cm vertical incision was made through the skin and subcutaneous fat. The underlying muscle was then cut to expose the trachea. A 26-gauge needle mounted on a 1-ml syringe was placed inside the tracheal lumen and 900 unite of highly purified bovine testicular hyaluronidase (Sigma Chemical Co., St. Louis, Mo.), dissolved in 0.3 ml normal saline solution, were delivered to the lungs in small increments. Twenty-four hours later, 20 units of porcine pancreatic elastase (Elastin Products, Pacific, Mo.), dissolved in 0.2 ml saline solution, were instilled by the same method. The incision was then closed with several sutures.
# pancreatic elastase = experiment: Measurement of elastase inhibitory capacity of hyaluronic acid (release of radioactivity from 3H-elastin); format: biochemical, porcine; conditions: 1, 10, 100 μg hyaluronic acid, 1 μg elastase, pH 8.0, 37° C., 22 hours, preincubated with elastase or 3H-elastin
# Method: as §1
# Various amounts of hyaluronic acid (1,10,100 μg) were incubated with pancreatic elastase (1 μg) and ^3 H-elastin in 0.2M Tris buffer, pH 8.0, at 37° C. for 22 hours (7,10). Hyaluronic acid was preincubated with either elastase or ^3 H-elastin for 10 minutes prior to the start of the assay. This was done to allow for the possible binding of one component to another. Following incubation, the samples were filtered, combined with scintillation fluid, and measured for radioactivity. The results were adjusted for nonspecific release of radioactivity and expressed as net counts per minute.
# lungs = conditions: hamster, in vivo
# Source text: One week after completion of the enzyme instillments, the hamsters were sacrificed by intraperitoneal injection of chloral hydrate. Their lungs were then fixed in-situ by inserting a catheter into the tracheas and allowing 10% neutral-buffered formalin to inflate the tissues at a pressure of 20 cm H2 O. Two hours later, the catheter was removed and the trachea was tied off to minimize deflation. both the lungs and heart were removed from the chest as a single block and additionally fixed in 10% formalin for several days. The lungs were then dissected free of extrapulmonary structures, sectioned randomly, and entirely submitted for histological processing.
# lung air-space = conditions: hyaluronidase alone; cited from earlier work
# 3H-elastin = conditions: incubation with 3H-elastin; cited from earlier work
substance,measurement,setting,value
"elastase: porcine pancreatic elastase (Elastin Products), used to induce emphysema",mean linear intercept (air-space size),[1]; elastase followed immediately by saline (model control),122 um
same,mean linear intercept value,"[2]; saline followed 24 hours later by elastase 20 units (model control), 1 week",100 um
hyaluronic acid,mean linear intercept (air-space size),"[1]; 1 mg hyaluronic acid intratracheally immediately after 20 units elastase, control elastase then saline 122 um",82 um
same,air-space enlargement,"[1]; hyaluronic acid intratracheally immediately after elastase, vs elastase followed by saline",significantly reduced the amount of air-space enlargement; also recorded: marked decrease in air-space enlargement; also recorded: marked reduction in air-space enlargement
same,pancreatic elastase activity (release of radioactivity from 3H-elastin),pancreatic elastase,"no elastase inhibitory capacity; also recorded: did not reduce ^3 H-elastin breakdown, but instead caused a marked increase in the release of radioactivity; also recorded: does not prevent elastin from being degraded by elastase in-vitro"
same,pancreatic elastase activity (release of radioactivity from 3H-elastin),pancreatic elastase; listed as Hyaluronic acid,"enhanced, rather than inhibited, pancreatic elastase activity"
same,histological changes of the lungs,lungs,No specific changes
hyaluronidase,mean linear intercept value,"[2]; elastase followed by hyaluronidase (reversed order), 1 week",95.3 um
same,mean linear intercept value,"[2]; hyaluronidase 900 units intratracheally 24 hours prior to elastase, 1 week",128 um
same,effect of hyaluronidase on air-space enlargement,[2]; order of enzyme administration reversed (elastase then hyaluronidase),abolished this effect; also recorded: extinguished
same,elastase-induced air-space enlargement,"[2]; pre-treatment with hyaluronidase, then elastase, 1 week",significantly increased elastase-induced air-space enlargement; also recorded: markedly enhanced
same,air-space dilation,lung air-space,does not cause significant air-space dilation
same,elastase activity of the hyaluronidase preparation,3H-elastin,no elastase activity
